We go through 15 molecules from ChEMBL document CHEMBL4342407, “Thieno[2,3-d]pyrimidine as a promising scaffold in medicinal chemistry: Recent advances” (Bioorg Med Chem, 2019).

Bounds are passed on as bounds.

Data set [1] has as its system Staphylococcus aureus. Briefly: Antibacterial activity against Staphylococcus aureus assessed as zone inhibition at 100 ug/ml. Particulars: read-out: IZ. The data set is classed as functional.
The subject of data set [2] is Bacillus subtilis. The data set can be described thus: Antibacterial activity against Bacillus subtilis assessed as zone inhibition at 100 ug/ml. The class given is functional. Particulars: read-out: IZ.
Data set [3] relates to Escherichia coli. The data set can be described thus: Antibacterial activity against Escherichia coli assessed as zone inhibition at 100 ug/ml. The data set is classed as functional. Particulars: read-out: IZ.
A further data set deals with Klebsiella pneumoniae. Briefly: Antibacterial activity against Klebsiella pneumoniae assessed as zone inhibition at 100 ug/ml. The class given is functional. To be noted: read-out: IZ.
Data set [4] has as its system Escherichia coli. Briefly: Antibacterial activity against Escherichia coli assessed as zone inhibition at 500 ug/ml by cup plate agar diffusion method. The class given is functional. Particulars: read-out: IZ.
For data set [5], the system named is Bacillus subtilis. The data set can be described thus: Antibacterial activity against Bacillus subtilis assessed as zone inhibition at 500 ug/ml by cup plate agar diffusion method. The data set is classed as functional. To be noted: read-out: IZ. On the technique in general: Agar diffusion results depend on both activity and mobility in agar.
For the next data set, the system named is Pseudomonas aeruginosa. The data set can be described thus: Antibacterial activity against Pseudomonas aeruginosa assessed as zone inhibition at 500 ug/ml by cup plate agar diffusion method. The class given is functional. Particulars: read-out: IZ.
The subject of the next data set is Candida albicans. Briefly: […] activity against Candida albicans assessed as zone inhibition at 500 ug/ml by cup plate agar diffusion method. The data set is classed as functional. Particulars: read-out: IZ.
Data set [6] deals with Staphylococcus aureus. Briefly: Antibacterial activity against Staphylococcus aureus assessed as zone inhibition at 500 ug/ml by cup plate agar diffusion method. The data set is classed as functional. Particulars: read-out: IZ.
The subject of the next data set is Hepatovirus A. The data set can be described thus: Antiviral activity against Hepatitis A virus infected in HepG2 cells assessed as virus inhibition at 40 ug/L incubated overnight with virus followed by inoculation and measured after 1 hr by crystal violet staining based plaque reduction assay. The class given is functional.
For data set [7], the species on record is Homo sapiens. The data set can be described thus: Selectivity ratio of Ki for human A2A receptor expressed in CHO cells to Ki for human A3 receptor expressed in CHO cells. The class given is cell-based.
Another data set deals with Adenosine receptor A2a (Homo sapiens, UniProt P29274). The data set can be described thus: Displacement of [3H]-NECA from human A2A receptor expressed in CHO cells by radioligand competitive binding assay. The data set is classed as cell-based. (In general: In a radioligand displacement assay an active substance lowers the binding of a labelled ligand.)
Adenosine receptor A2a, sequence (P29274 whole entry): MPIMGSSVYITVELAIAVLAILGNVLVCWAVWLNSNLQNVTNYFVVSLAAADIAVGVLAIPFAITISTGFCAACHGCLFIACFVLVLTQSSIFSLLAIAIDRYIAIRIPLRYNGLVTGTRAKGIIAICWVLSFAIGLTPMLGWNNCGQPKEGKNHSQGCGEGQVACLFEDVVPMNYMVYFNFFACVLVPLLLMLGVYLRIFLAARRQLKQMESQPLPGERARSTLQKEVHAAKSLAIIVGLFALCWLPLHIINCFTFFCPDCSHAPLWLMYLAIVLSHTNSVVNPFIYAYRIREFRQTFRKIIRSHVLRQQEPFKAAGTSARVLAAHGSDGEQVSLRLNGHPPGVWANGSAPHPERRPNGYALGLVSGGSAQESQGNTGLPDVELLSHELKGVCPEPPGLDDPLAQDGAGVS
The next data set deals with T1, Adenosine receptor A3 (Homo sapiens, UniProt P0DMS8).
T1 sequence (P0DMS8 whole entry): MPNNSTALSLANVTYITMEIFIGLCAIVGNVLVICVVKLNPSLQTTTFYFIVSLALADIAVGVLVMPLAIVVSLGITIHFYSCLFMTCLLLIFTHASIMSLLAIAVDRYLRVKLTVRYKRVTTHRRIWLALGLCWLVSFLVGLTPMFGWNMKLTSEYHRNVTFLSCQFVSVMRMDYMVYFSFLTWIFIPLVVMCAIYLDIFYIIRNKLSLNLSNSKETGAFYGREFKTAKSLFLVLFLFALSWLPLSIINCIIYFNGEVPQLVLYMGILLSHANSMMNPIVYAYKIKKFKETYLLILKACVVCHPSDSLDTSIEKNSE
The data set can be described thus: Displacement of [3H]-HEMADO from human A3 receptor expressed in CHO cells by radioligand competitive binding assay. The class given is cell-based.

Another data set deals with T2, Adenosine receptor A1 (Homo sapiens, UniProt P30542).
T2 sequence (P30542 whole entry): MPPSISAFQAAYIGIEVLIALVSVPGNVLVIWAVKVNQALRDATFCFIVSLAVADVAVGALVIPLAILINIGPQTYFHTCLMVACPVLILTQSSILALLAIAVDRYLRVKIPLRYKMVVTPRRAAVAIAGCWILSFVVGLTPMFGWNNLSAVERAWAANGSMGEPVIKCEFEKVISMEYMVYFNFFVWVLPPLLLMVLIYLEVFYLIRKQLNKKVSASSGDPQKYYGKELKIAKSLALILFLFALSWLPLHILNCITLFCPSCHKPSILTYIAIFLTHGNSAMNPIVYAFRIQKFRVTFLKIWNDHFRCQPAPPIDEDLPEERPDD
Briefly: Displacement of [3H]-CCPA binding from human A1 receptor expressed in CHO cells by radioligand competitive binding assay. The class given is cell-based.

For data set [8], the species on record is Homo sapiens. Briefly: Selectivity ratio of Ki for human A1 receptor expressed in CHO cells to Ki for human A2A receptor expressed in CHO cells. The class given is cell-based.
The species named for data set [9] is Homo sapiens. Briefly: Selectivity ratio of Ki for human A1 receptor expressed in CHO cells to Ki for human A3 receptor expressed in CHO cells. The class given is cell-based.
The subject of a further data set is Mus musculus. Briefly: Analgesic activity in Swiss albino mouse assessed as protection against acetic acid-induced writhing at 15 mg/kg, po pretreated for 30 mins followed by acetic acid challenge and measured after 20 mins relative to control. The class given is functional.
A short description of data set [10]: Ulcerogenic activity in Sprague-Dawley rat assessed as ulcer index at 20 mg/kg, ip pretreated followed by pylorus ligation and measured at 4 hrs post ligation. The data set is classed as toxicity, organism-based. Particulars: in vivo.
The subject of data set [11] is Rattus norvegicus. The data set can be described thus: Antiinflammatory activity in Sprague-Dawley rat assessed as inhibition of carrageenan-induced edema at 15 mg/kg, po pretreated for 1 hr followed by carrageenan challenge and measured after 4 hrs by mercury plethysmometer relative to control. The data set is classed as functional.
Data set [12] relates to Rattus norvegicus. The data set can be described thus: Antiinflammatory activity in gamma irradiated rat assessed as reduction in serum IL-6 level at 150 mg/kg, ip administered once daily for 7 consecutive days by ELISA (reference value: 103.87 +/- 3.273 pg/ml). The data set is classed as functional. (An ELISA detects its analyte on a solid surface through an enzyme-linked reagent.)

For data set [13], the system named is Rattus norvegicus. The data set can be described thus: Antiinflammatory activity in gamma irradiated rat assessed as reduction in serum TNFalpha level at 150 mg/kg, ip administered once daily for 7 consecutive days by ELISA (reference value: 105.07 +/- 3.925 pg/ml). The data set is classed as functional.
For data set [14], the system named is Rattus norvegicus. The data set can be described thus: Antiinflammatory activity in gamma irradiated rat assessed as reduction in NFkappaB level in liver tissue homogenates at 150 mg/kg, ip administered once daily for 7 consecutive days by ELISA (reference value: 258.33 +/- 4.216 pg/ml). The class given is functional.
For data set [15], the system named is Rattus norvegicus. The data set can be described thus: Antiinflammatory activity in gamma irradiated rat assessed as reduction in COX-2 level in liver tissue homogenates at 150 mg/kg, ip administered once daily for 7 consecutive days by ELISA (reference value: 89.50 +/- 2.617 ng/ml). The class given is functional.
The next data set has as its system HCT-116. The data set can be described thus: Antiproliferative activity against human HCT116 after 18 hrs by MTT assay. The class given is functional, cell-based. Particulars: HCT-116, 18 h.
Another data set concerns Human alphaherpesvirus 1. The data set can be described thus: Antiviral activity against Herpes simplex virus 1 at 20 ug/10^5. The data set is classed as functional.

In the case of `CC1(C)S[C@@H]2[C@H](NC(=O)[C@H](N)c3ccc(O)cc3)C(=O)N2[C@H]1C(=O)O` [AMOXICILLIN], the zone of inhibition at 100 µg/mL in the data set on Staphylococcus aureus [1] came to 17.6 mm; in the data set with Bacillus subtilis [2], 15.5 mm; with Escherichia coli [3], 19.5 mm; with Klebsiella pneumoniae, 18 mm.
Turning to `FC(F)(F)Oc1ccc(C2=Nc3ccccc3SC(c3cc4cncnc4s3)C2)cc1` (stereo not given), the zone of inhibition at 500 µg/mL in the data set on Escherichia coli [4] was 12.3 mm; with Bacillus subtilis [5] it was 15.3 mm; in the data set on Pseudomonas aeruginosa, 13.2 mm; in the data set on Candida albicans it was 10.6 mm; in the data set on Staphylococcus aureus [6] it was 15.1 mm.
Take `CC(=O)OC[C@H]1O[C@@H](Sc2nc3sc4c(c3c(=O)n2-c2ccccc2)CCCCC4)[C@H](OC(C)=O)[C@@H](OC(C)=O)[C@@H]1OC(C)=O`: the “inhibition (INH)” value with Hepatovirus A is 50%.
On to `Cc1sc2nc(N)nc(-n3cncn3)c2c1C`, for which the Ratio Ki in the data set filed under Homo sapiens [7] is more than 0.19; in the data set listed under Homo sapiens [8], 7.2; in the data set listed under Homo sapiens [9] it was more than 1.4. For the same molecule, the results for the Ki at Adenosine receptor A2a, on Adenosine receptor A3 and on Adenosine receptor A1 were 5.69 µM, more than 30 µM and 40.8 µM, respectively.
As to `CC(=O)Cc1c(C(C)C)sc2nc(S)[nH]c(=S)c12`, the Activity in the data set with Mus musculus came to 60%. Moreover, in [10], the UI came to 1.1. The inhibition in vivo at 15 mg/kg in the data set with Rattus norvegicus [11] was 71.6%.
For `CC(=O)OC[C@H]1O[C@@H](Sc2nc3sc4c(c3c(=O)n2CCO)CCCCC4)[C@H](OC(C)=O)[C@@H](OC(C)=O)[C@@H]1OC(C)=O`, in the data set on Hepatovirus A, the “inhibition (INH)” value is 65%.
With `CC(=O)c1nn(-c2ccc(Cl)cc2)c2nc3sc(-c4ccccc4)c(C)c3c(=O)n12`, the Activity with Mus musculus worked out at 35%. Further, in data set [10], the UI was found to be 0.9. Moreover, the inhibition in vivo at 15 mg/kg in the data set on Rattus norvegicus [11] was 74.5%.
Take `FC(F)(F)c1ccc(C2=NOC(c3cc4cncnc4s3)C2)cc1` (stereo not given): the zone of inhibition at 100 µg/mL with Staphylococcus aureus [1] stood at 15 mm; in the data set with Bacillus subtilis [2], 13 mm; in the data set with Escherichia coli [3], 17 mm; in the data set on Klebsiella pneumoniae, 16.5 mm.
As for `CC(=O)Nc1nc2sc3c(c2c(=O)[nH]1)CCC3`, the Ratio Ki in the data set listed under Homo sapiens [7] is more than 22; in the data set filed under Homo sapiens [8], more than 3.3; in the data set listed under Homo sapiens [9] it was more than 74. The figures for the Ki on Adenosine receptor A2a, at Adenosine receptor A3 and on Adenosine receptor A1 were more than 30 µM, 1.35 µM and more than 100 µM, respectively.
Take `CCOC(=O)c1sc2ncnc(N[C@@H](CC(=O)O)C(=O)O)c2c1C`: in the data set with Rattus norvegicus [12], the “Serum IL-6 level” value stood at 59.85 pg/mL. Also, in the data set with Rattus norvegicus [13], the “Serum TNFalpha level” value stood at 51.35 pg/mL. In addition, in the data set with Rattus norvegicus [14], the “NFkappaB level in liver tissue” value came to 88.17 pg/mL. The “COX-2 level in liver homogenate” value with Rattus norvegicus [15] was 40.5 ng/mL.
In the same order, the values of `CCOC(=O)c1sc2ncnc(Cl)c2c1C` are 50.1 pg/mL, 41.53 pg/mL, 138.17 pg/mL and 36.33 ng/mL.
Consider `CCc1cc2c(OCc3cc(-c4ccc(OC)cc4)no3)ncnc2s1`, for which 112 µM corresponded to half-maximal inhibition with HCT-116 (IC50).
In the case of `CC(=O)OC[C@H]1O[C@@H](Sc2nc3sc4c(c3c(=O)n2C)CCCCC4)[C@H](OC(C)=O)[C@@H](OC(C)=O)[C@@H]1OC(C)=O`, the “inhibition (INH)” value in the data set with Hepatovirus A amounted to 50%.
As to `Nc1nc(-n2ccnc2)c2c3c(sc2n1)CCCC3`, the Ratio Ki in the data set filed under Homo sapiens [7] is more than 0.14; in the data set listed under Homo sapiens [8] it was 2.6; in the data set filed under Homo sapiens [9], more than 0.35. Further, the inhibition constant (Ki) was 4.06 µM on Adenosine receptor A2a, more than 30 µM on Adenosine receptor A3 and 10.4 µM at Adenosine receptor A1.
Molecule `Nc1nc2c(ncn2COCCO)c(=O)[nH]1` [ACYCLOVIR] returned an Activity in the data set on Human alphaherpesvirus 1 of 100%.

Broadly, the Ki is a measure of affinity in units of concentration, obtained from inhibition or displacement. A lower Ki goes with a stronger hold on the target. One may read the inhibition in vivo as the percentage by which the read-out fell short of the control. Broadly, the IC50 is the concentration at which inhibition is half-maximal. A higher IC50 goes with weaker potency.
